# According to patent publication US20180155341A1, “Antibacterial Compounds” (Janssen Sciences Ireland UC, priority 2015, published 2018):
# Tests used:
# [1] = system: Mycobacterium tuberculosis strain EH 4.0 (361.269); assay: Test 4: MIC determination against M. tuberculosis, resazurin fluorescence read-out, different strain; assay type: cell-based; conditions: read-out: pIC50 (converted)
# From the text: Test 4 (See Also Test 1 Above; in this Test a Different Strain of Mycobacterium tuberculosis Strain is Employed)
# Appropriate solutions of experimental and reference compounds were made in 96 well plates with 7H9 medium. Samples of Mycobacterium tuberculosis strain EH 4.0 (361.269) were taken from cultures in stationary growth phase. These were first diluted to obtain an optical density of 0.3 at 600 nm wavelength and then diluted 1/100, resulting in an inoculum of approximately 5×10 exp5 colony forming units per well. Plates were incubated at 37° C. in plastic bags to prevent evaporation. After 7 days, resazurin was added to all wells.
# [2] = system: Mycobacterium tuberculosis strain H37Rv; assay: Test 1: MIC determination against M. tuberculosis, resazurin fluorescence read-out; assay type: cell-based; conditions: Test 1, strain H37Rv
# [3] = system: replicating and non-replicating bacteria; conditions: stated in J. Medicinal Chemistry, 2014, 57 (12); cited from earlier work
# [4] = system: MDR tuberculosis; conditions: stated in J. Medicinal Chemistry, 2014, 57 (12); cited from earlier work
# [5] = system: M. tuberculosis H37Rv; conditions: strain H37Rv, inside macrophages; cited from earlier work
Compound,IC50 [1] [µM],also measured
CCc1nc2ccc(Cl)cn2c1C(=O)NCc1ccc2nc(N3CCC(F)(F)CC3)ccc2c1 [Compound 24],0.00631,
CCc1nc2ccc(Cl)cn2c1C(=O)NCc1ccc2nc(N3CCC(c4ccc(OC(F)(F)F)cc4)CC3)ccc2c1 [Compound 3],0.0501,
Cc1nc2sccn2c1C(=O)NCc1ccc2nc(N3CCN(c4ccc(OC(F)(F)F)cc4)CC3)ccc2c1 [Compound 9],0.141,
CCc1nc2n(c1C(=O)NCc1ccc3nc(N4CCC(c5ccc(OC(F)(F)F)cc5)CC4)ccc3c1)CCN(C)C2 [Compound 8],0.158,
Cc1nn2ccccc2c1C(=O)NCc1ccc2nc(N3CCN(c4ccc(OC(F)(F)F)cc4)CC3)ccc2c1 [Compound 27],0.794,
CCc1nc2ccc(Cl)cn2c1C(=O)NCc1ccc2nc(N3CC4(CC(F)C4)C3)ccc2c1 [Compound 25],0.178,
CCc1nc2ccc(Cl)cn2c1C(=O)NCc1ccc2nc(N(C)Cc3ccc(OC(F)(F)F)cc3)cnc2c1 [Compound 15],0.631,
CCc1nc2ccc(Cl)cn2c1C(=O)NCc1ccc2nc(N(C)Cc3ccc(OC(F)(F)F)cc3)ccc2c1 [Compound 17],0.0794,
Cc1nn2ccccc2c1C(=O)NCc1ccc2nc(N3CCC(c4ccc(OC(F)(F)F)cc4)CC3)ccc2c1 [Compound 26],0.398,
CCc1c(C(=O)NCc2ccc3nc(N4CC5(CC(c6ccccc6)C5)C4)ccc3c2)c2cc(Cl)cnc2n1C [Compound 12],> 12.6,
CCc1nc2ccc(Cl)cn2c1C(=O)NCc1ccc2nc(N3CC4(CC(c5ccc(OC(F)(F)F)cc5)C4)C3)ccc2c1 [Compound 2],0.2,IC50 ([2]; first test): 0.676 µM; IC50 ([2]; repeated (2nd) test): 0.692 µM; IC50 ([2]; repeated (3rd) test): 0.589 µM
CCc1c(C(=O)NCc2ccc3nc(N4CC(c5ccccc5)C4)ccc3c2)c2cc(Cl)cnc2n1C [Compound 13],> 12.6,
Cc1nc2sccn2c1C(=O)NCc1ccc2nc(N3CCC(c4ccc(OC(F)(F)F)cc4)CC3)ccc2c1 [Compound 7],0.2,
CCc1nc2ncc(Cl)cn2c1C(=O)NCc1ccc2nc(N3CC4(CC(c5ccc(OC(F)(F)F)cc5)C4)C3)ccc2c1 [Compound 1],0.0398,
Cc1nc2sccn2c1C(=O)NCc1ccc2nc(N(C)Cc3ccc(OC(F)(F)F)cc3)ccc2c1 [Compound 19],0.282,
CCc1c(C(=O)NCc2ccc3nc(N4CCC(c5ccc(OC(F)(F)F)cc5)CC4)ccc3c2)c2cc(Cl)cnc2n1C [Compound 22],> 12.6,
CCc1nc2ccc(Cl)cn2c1C(=O)NCc1ccc(N2CCC(c3ccc(OC(F)(F)F)cc3)CC2)cc1 [Compound Q203],,activity against replicating and non-replicating bacteria [3]: highly active; activity against MDR tuberculosis [4]: activity against MDR tuberculosis; MIC50 [5]: 0.28 nM
CCc1nc2ccc(Cl)cn2c1C(=O)NCc1ccc2ncc(N(C)Cc3ccc(OC(F)(F)F)cc3)cc2c1 [Compound 20],0.794,
CCc1nc2ccc(Cl)cn2c1C(=O)NCc1ccc2cc(N(C)Cc3ccc(OC(F)(F)F)cc3)cnc2c1 [Compound 18],1,
Cc1nc2sccn2c1C(=O)NCc1ccc2nc(N(C)CCc3ccc(OC(F)(F)F)cc3)ccc2c1 [Compound 11],0.355,
CCc1c(C(=O)NCc2ccc3nc(N4CCC(c5ccc(OC(F)(F)F)cc5)CC4)ccc3c2)c2cc(Cl)ccc2n1C [Compound 21],> 12.6,
O=C(NCc1ccc2nc(N3CCC(c4ccc(OC(F)(F)F)cc4)CC3)ccc2c1)c1cc2c([nH]1)CCCC2 [Compound 23],> 12.6,
CCc1nc2ccc(Cl)cn2c1C(=O)NCc1ccc2nc(N3CC4CC(F)CC4C3)ccc2c1 (centres unmarked) [Compound 4],0.0316,
CCc1nc2n(c1C(=O)NCc1ccc3nc(N4CCN(c5ccc(OC(F)(F)F)cc5)CC4)ccc3c1)CCCC2 [Compound 10],0.126,
